{
  "source": "patent US20230102309A1",
  "about": "“TYROSINE KINASE INHIBITOR CONJUGATES” (Ascendis Pharma Oncology Division A/S, priority 2019, published 2023)",
  "key": {"[1]": {"experiment": "Axitinib concentration in plasma samples", "assay_type": "in vivo, C57BL/6 mice", "settings": "female, C57BL/6, mouse, 9c single IT 50 μL (n=4), Axitinib 3 mg/kg oral (n=3), LLOQ 50.0 pg/mL", "experimental": "(§1) The study was conducted in female C57BL/6 mice with an age of 6-8 weeks at the day of tumor inoculation. Mice were implanted with 1×10^6 of MC-38/C11G tumor cells into the right flank.\n(§2) When tumors were grown to a mean tumor volume of ˜94 mm^3, mice were randomized into treatment cohorts (day 0). Following randomization, animals received either a single intratumoral injection of hydrogel 1 or hydrogel 9c as a single intratumoral dose in an injection volume of 50 μL, or with orally administered Axitinib suspended in 0.5% carboxymethylcellulose at 3 mg/kg in a 100 μl dose volume twice a day for 14 days. Hydrogels were administered as suspensions in pH 5.5 20 mM sodium succinate, 77 g/l trehalose dihydrate, 0.2% Pluronic F-68 buffer.\nAfter 0.5, 1, 4 12, and 24 hours following treatment, 4 mice from the hydrogel 9c and Axitinib treated groups were sacrificed and terminal blood was collected in EDTA. Plasma was prepared after blood withdrawal. After 72 hours following treatment, 4 mice from the hydrogel 9c treated group were sacrificed and tumors were excised and snap frozen. Plasma samples underwent further processing by solid-phase extraction prior to Axitinib concentration determination by LCMS/MS.\nAll solvents (UPLC grade) as well as formic acid (ULC/MS quality) were purchased from Biosolve BV, Valkenswaard, The Netherlands. Axitinib concentrations in plasma were determined after solid phase extraction via liquid chromatography separation and detection by mass spectrometry (LCMS). As internal standard [^13C, D3]-axitinib was used. LCMS analysis was carried out by using an Agilent Infinity ultra high performance liquid chromatography (UHPLC) system coupled to an AbSciex 6500+ QTrap triple quadrupole mass spectrometer (QQQ) via an ESI probe. Chromatography was performed on a C18 analytical UHPLC column (YMC-Triart, 2.1×50 mm, 1.9 μm particle). Water containing 0.1% formic acid (v/v) was used as mobile phase A and acetonitrile with 0.1% formic acid as mobile phase B. The gradient system comprised a linear increase from 15% B to 30% B in 2.7 min. […]"}, "MC-38/C11G tumor cells": {"system": "MC-38/C11G tumor cells", "experiment": "Anti-tumor efficacy within the in vivo PK study", "parameters": "species or system C57BL/6 mice", "settings": "Axitinib 3 mg/kg oral twice a day for 14 days, 9c single IT 50 μL", "experimental": "as §1, §2\n(§3) Following treatment initiation, anti-tumor efficacy was assessed by determination of tumor volumes at various time points from tumor size measurements with a caliper. Tumor volumes were calculated according to the formula: […]\n(§4) where L is the length of the tumor and W the width (both in mm)."}, "MC-38 tumor cells": {"system": "MC-38 tumor cells", "experiment": "In vivo anti-tumor efficacy and combination efficacy with anti-PD1, bilateral MC-38 tumors", "parameters": "species or system C57BL/6 mice", "settings": "Axitinib 25 mg/kg oral twice daily, antibodies 10 mg/kg IP; for Absolute tumor volume of left flank tumors, mean: left (not injected) tumor, hydrogels 50 μL IT into right tumor once Day 0 (7a 378, 8a 136, 8b 47 μg eq. axitinib); for Absolute tumor volume of right flank tumors, mean: right (IT-treated) tumor, hydrogels 50 μL IT once Day 0 (7a 378, 8a 136, 8b 47 μg eq. axitinib)", "experimental": "The study was conducted in female C57BL/6 mice with an age of 6-8 weeks at the day of tumor inoculation. Mice were implanted with 1×10^6 MC-38 tumor cells into the left and right flanks. When right flank tumors were grown to a mean tumor volume of ˜104 mm^3, mice were randomized into treatment cohorts. For animals that received intratumoral injections, the right tumor was selected for treatment.\nas §3, §4"}},
  "note": "Marks after values point to notes of the source that are not given here.",
  "data": [
    {"smiles": "CNC(=O)c1ccccc1Sc1ccc2c(/C=C/c3ccccn3)n[nH]c2c1", "note": "[Axitinib, axitinib]", "values": [
      {"measurement": "concentration at 0.5 h", "setting": "[1]; 0.5 h", "result": 101, "unit": "ng/mL"},
      {"measurement": "concentration at 1 h", "setting": "[1]; 1 h", "result": 76.8, "unit": "ng/mL"},
      {"measurement": "concentration at 12 h", "setting": "[1]; 12 h", "result": 0.797, "unit": "ng/mL"},
      {"measurement": "Absolute tumor volume, mean", "setting": "MC-38/C11G tumor cells; day 0 post-treatment", "result": 93.862, "unit": "mm^3"},
      {"measurement": "Absolute tumor volume, mean", "setting": "MC-38/C11G tumor cells; day 4 post-treatment", "result": 243.647, "unit": "mm^3"},
      {"measurement": "Absolute tumor volume, mean", "setting": "MC-38/C11G tumor cells; day 7 post-treatment", "result": 418.787, "unit": "mm^3"},
      {"measurement": "Absolute tumor volume, mean", "setting": "MC-38/C11G tumor cells; day 11 post-treatment", "result": 710.390, "unit": "mm^3"},
      {"measurement": "Absolute tumor volume, mean", "setting": "MC-38/C11G tumor cells; day 14 post-treatment", "result": "977.619* mm^3"},
      {"measurement": "Absolute tumor volume of left flank tumors, mean", "setting": "MC-38 tumor cells; day 0 post-treatment", "result": 112.18, "unit": "mm^3"},
      {"measurement": "Absolute tumor volume of right flank tumors, mean", "setting": "MC-38 tumor cells; day 0 post-treatment", "result": 104.22, "unit": "mm^3"},
      {"measurement": "Absolute tumor volume of left flank tumors, mean", "setting": "MC-38 tumor cells; day 3 post-treatment", "result": 321.44, "unit": "mm^3"},
      {"measurement": "Absolute tumor volume of right flank tumors, mean", "setting": "MC-38 tumor cells; day 3 post-treatment", "result": 304.55, "unit": "mm^3"},
      {"measurement": "Absolute tumor volume of left flank tumors, mean", "setting": "MC-38 tumor cells; day 5 post-treatment", "result": 432.85, "unit": "mm^3"},
      {"measurement": "Absolute tumor volume of right flank tumors, mean", "setting": "MC-38 tumor cells; day 5 post-treatment", "result": 419.99, "unit": "mm^3"},
      {"measurement": "Absolute tumor volume of left flank tumors, mean", "setting": "MC-38 tumor cells; day 7 post-treatment", "result": 601.11, "unit": "mm^3"},
      {"measurement": "Absolute tumor volume of right flank tumors, mean", "setting": "MC-38 tumor cells; day 7 post-treatment", "result": 543.06, "unit": "mm^3"},
      {"measurement": "Absolute tumor volume of left flank tumors, mean", "setting": "MC-38 tumor cells; day 10 post-treatment", "result": "741.81† mm^3"},
      {"measurement": "Absolute tumor volume of right flank tumors, mean", "setting": "MC-38 tumor cells; day 10 post-treatment", "result": 763.99, "unit": "mm^3"},
      {"measurement": "Absolute tumor volume of left flank tumors, mean", "setting": "MC-38 tumor cells; day 12 post-treatment", "result": "967.56†, †† mm^3"},
      {"measurement": "Absolute tumor volume of right flank tumors, mean", "setting": "MC-38 tumor cells; day 12 post-treatment", "result": "994.16† mm^3"}
    ]}
  ]
}
